Entries after “also recorded” stand apart in the source; their conditions may differ. Read-outs that look alike come from different tables or passages of the source.
Columns and labels:
[1] = test system: primary cultured spinal cord dorsal horn neurons; test: Dendritic spine density in primary cultured neurons with PAK1 inhibitor; type: cell-based; details: PAK1 inhibitor treatment; FIG. 11
Protocol: To assess whether PAK1 inhibition would disrupt dendritic spines, a morphological correlate of spasticity, the effect of a non-pharmaceutical grade PAK1 inhibitor, IPA3, on primary cultured spinal cord dorsal horn neurons was measured using previous methods (Tan et al., 2011).

SCI mouse model = test: Maximum tolerated dose in SCI mouse model (weight loss, paw grip-strength, mobility); type: in vivo
Protocol: (§1) As detailed elsewhere herein, the feasibility of “repurposing” a clinically approved drug to address spasticity in SCI will be evaluated. Here, testing the efficacy of romidepsin, an FDA-approved drug, to reduce PAK1 activity in the spinal cord and SCI-induced spasticity has begun. […] Initial test dosages were calculated from human trial data using FDA guidelines for converting drug dosage from human to animal.
(§2) Vehicle (1% DMSO) was used as a control treatment.

[2] = as above; type: in vivo; details: mouse, in vivo; once/day for 3 days; 10 μl per IP injection; diluted in 1% DMSO
Protocol: as §1, §2

[3] = cited from earlier work
PAK1 = PAK1 (Homo sapiens, UniProt Q13153); details: cited from earlier work
SCI-induced spasticity = test: Evoked H-reflex EMG recordings (rate-dependent depression) in SCI spasticity model; type: in vivo, mouse
Protocol: as §1
Study Design: Four animal groups were prepared (adult m/f mix; 6-8 weeks old; n=60/group); 1) Sham+DMSO/vehicle, 2) Sham+Romidepsin, 3) SCI+DMSO/vehicle, and 4) SCI+Romidepsin. […]
H-reflex electrophysiology-EMG recordings of evoked H-reflex will be performed in the plantar muscle group (Bandaru et al., 2015; Benson et al., 2017; Boulenguez et al., 2010; Nielsen et al., 2007). […] Three trials (10 sweeps/trial) will be recorded for each paired-pulse. Rectified traces will be analyzed. […] The H/M ratio will be calculated using the peak amplitude of M-wave and H-reflex following the test pulse. H-reflex EMG studies provide specific readout only of the monosynaptic circuit, and is therefore an accurate measure of the spinal stretch reflex response without the confounds of supraspinal, interneuronal, or other motor neuron sub-type input (Nielsen et al., 2007).

acetyl histone-H3 [4] = type: in vivo, mouse; details: vs control treated animal tissues; FIG. 17
Protocol: as §1
To monitor in vivo drug-response using established clinical biomarkers from all animals before and after treatment with romidepsin, histone acetylation was assessed in spinal cord tissue, peripheral blood mononuclear cells (PBMCs), and monocytes from CSF (i.e., ELISA pharmacodynamics assessment) (Cotto et al., 2010); VanderMolen et al., 2011). Liquid samples were collected using routine blood or spinal CSF draws.
(§3) To monitor in vivo drug-response using established clinical biomarkers from all animals before and after intrathecal treatment with romidepsin at MTD, histone acetylation in peripheral blood mononuclear cells (PBMCs) or lymphocytes/monocytes in CSF (i.e., ELISA pharmacodynamics assessment) will be assessed (Cotto et al., 2010; VanderMolen et al., 2011). […]

humans = details: human, in vivo; cited from earlier work
acetyl histone-H3 [5] = details: injected intraperitoneally; within 24-hours post-administration; dorsal horn L4 (Guo et al., 2018); FIG. 25; cited from earlier work
adult mice = details: mouse, in vivo
Protocol: Rationale for Dosing: These initial romidepsin dosages were determined on two interrelated rationales. […] 2) Because it is expected that the utility of romidepsin for pain mitigation would likely require longer-term use than for the oncology indication, a pilot study in mice was performed with a lower dose of romidepsin for a prolonged period of time (once daily injections up to 14 days).

p-Raf = p-Raf expression in spinal cord neurons (histological analysis); type: in vivo, mouse; details: spinal cord after SCI; FIG. 16
From the text: Outcome Measures: On days 14, 28, and 35 post-SCI, spinal cord and brain tissue were collected for histological analyses. Tissue was processed using SWITCH clearing and immunohistochemistry performed to analyze protein expression levels of inflammatory markers, i.e., GFAP/OX42 for astro/microgliosis, cfos, p38, p-Raf, or PAK1 activity (Stamboulian et al., 2010); Tan et al., 2011; Tan et al., 2008). Because mice are Thy1-GFP transgenic animals, α-motor neurons were identified using established morphological criteria, including soma size and topographical location (Bandaru et al., 2015; Tan et al., 2012a). GFP-expressing dendritic spines were visualized, and their morphology profiled in association with spasticity. All data was statistically compared across groups (Bandaru et al., 2015; Zhao et al., 2016). To determine the efficacy of romidepsin treatments on SCI-induced spasticity, anatomical and biochemical data were correlated with spasticity outcomes. […]
as §3

[6] = test system: nerve injury-induced chronic pain; test: Spared nerve injury (SNI) pain model, mechanical-evoked pain; type: in vivo; details: mouse SNI, IP once/day for 5 days at 0.25 mg/kg, FIG. 27
From the text: An SNI is a transection-type peripheral nerve injury model, whereby a portion of the sciatic nerve innervating the hindlimb is ligated and cut. In this nerve injury model, the common peroneal and tibial nerves are injured, producing consistent and reproducible pain hypersensitivity in the cutaneous territory of the spared sural nerve. Additionally, the SNI leads to prolonged mechanical and thermal hyperresponsiveness in behavioral studies, which closely mimic clinically-described neuropathic pain conditions (Cichon et al., 2018). With an SNI, adult mice rapidly develop maximal neuropathic pain sensitivity within 3 days post-SNI (Benson et al., 2020; Cichon et al., 2018).
To evaluate the efficacy of romidepsin in treating nerve-induced chronic pain, the following comparator groups were prepared (weight-matched, adult male/female equally mixed C57BL/6 mice): Sham (n=5), SNI+Vehicle (n=5), and SNI+romidepsin (n=5). Romidepsin was administered as an intraperitoneal (IP) injection for five consecutive days after SNI (once/day for 5 days: 5 μl per injection at 0.25 mg/kg). Vehicle administration route was the same as romidepsin (1% diluted in DMSO; IP route), and sham animals underwent all procedures except for nerve injury.

Sequence of PAK1 (Q13153 whole entry): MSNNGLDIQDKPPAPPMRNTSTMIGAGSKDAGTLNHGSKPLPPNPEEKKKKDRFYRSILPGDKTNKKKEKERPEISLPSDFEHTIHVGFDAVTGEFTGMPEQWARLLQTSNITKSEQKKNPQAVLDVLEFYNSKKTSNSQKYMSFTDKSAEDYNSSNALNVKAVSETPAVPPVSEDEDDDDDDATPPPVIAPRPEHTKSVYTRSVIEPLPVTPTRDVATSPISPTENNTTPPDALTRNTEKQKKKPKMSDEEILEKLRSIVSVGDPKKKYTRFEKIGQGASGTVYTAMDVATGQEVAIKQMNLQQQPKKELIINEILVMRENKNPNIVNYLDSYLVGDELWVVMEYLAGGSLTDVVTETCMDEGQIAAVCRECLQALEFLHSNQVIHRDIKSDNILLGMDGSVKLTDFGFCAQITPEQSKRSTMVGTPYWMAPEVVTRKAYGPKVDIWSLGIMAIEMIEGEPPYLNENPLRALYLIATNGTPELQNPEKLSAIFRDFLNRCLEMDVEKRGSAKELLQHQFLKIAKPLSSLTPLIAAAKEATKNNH

Structure (SMILES)	dendritic spine density [1]	maximum tolerated dose (MTD) (SCI mouse model; SCI mouse model, once/day IP injection over 3 days, 0.1 ml) [mg/kg/injection]	body weight (SCI mouse model; mouse, in vivo)	paw-grip strength (SCI mouse model; mouse, in vivo)	MTD at 3 days [2] [mg/kg]	blood brain barrier (BBB) penetration ([3]; administered systemically in non-human primates or rodents/rats, drug and active metabolites)	half-life ([3]; depending on the organism (Berg et al., 2004)) [h]	half-life ([3]; published PK/PD studies (Berg et al., 2004)) [h]	half-life ([3]; published human PK/PD studies (Berg et al., 2004)) [h]	concentrations that significantly reduce PAK1 kinase activity (PAK1; Hirokawa et al., 2005, Maruta, 2011) [nM]	PAK1 protein level (PAK1; at 0.1-1 nM)	RDD of H-reflex (spasticity) (SCI-induced spasticity; SCI animals vs vehicle control, preliminary EMG studies, FIG. 13)	RDD of H-reflex (H/M ratio) (SCI-induced spasticity; SCI mice, IP injection at 0.25 mg/kg vs control vehicle, FIG. 15, 0.25 mg/kg)	H3 density in spinal cord tissues (acetyl histone-H3 [4])	occurrence of adverse reactions (grade 3 or 4) related to weight loss and fatigue (humans)	histone acetylation in neurons (acetyl histone-H3 [5])	adverse effects (ambulation, body mass loss, outward signs of toxicity) (adult mice)	food intake (adult mice)	expression of p-Raf on Thy-YFP expressing cells (neurons) (p-Raf)	mechanical-evoked pain [6]
Oc1ccc2ccccc2c1SSc1c(O)ccc2ccccc12 [IPA3]	decreases																			
C/C=C1\NC(=O)[C@H]2CSSCC/C=C/[C@H](CC(=O)N[C@H](C(C)C)C(=O)N2)OC(=O)[C@H](C(C)C)NC1=O [romidepsin]		1.25	does not affect	does not affect	1.25	can passively penetrate through the blood brain barrier (BBB) in relatively low concentrations	< 10	< 10	< 10	0.1 to 1	without changing	partially restored RDD; also recorded: partial reduction in spasticity	significant restoration of rate-dependent depression (RDD)	significant increase in H3 density	2-8%	upregulation of histone acetylation in neurons; also recorded: upregulation in acetyl histone-H3 in neurons	no observable adverse effects	appeared the same	significantly decreases	significant decrease in mechanical-evoked pain; also recorded: significantly decreases mechanical-evoked pain

Reference: US20240335503A1, “ROMIDEPSIN AS A THERAPEUTIC AGENT FOR NERVE-INJURY INDUCED NEUROPATHIC PAIN AND SPASTICITY” (The United States Government as represented by the …, priority 2021, published 2024)
